Source: patent publication US20170334927A1 (Shanghai Sun-sail Pharmaceutical Science & Technology Co., …, priority 2014, published 2017)
In brackets after ≈: the same amount, converted by molar mass.

Assays:
[1] = tested on: Mycobacterium tuberculosis H37Rv; experiment: Activity test for Mycobacterium tuberculosis (MIC, H37Rv); format: cell-based; details: for anti Mycobacterium tuberculosis activity (MIC against H37Rv), times of that of PA-824: relative to PA-824; for anti Mycobacterium tuberculosis activity (MIC against H37Rv), times of that of ethambutol: relative to ethambutol; for MIC: Mycobacterium tuberculosis H37Rv, liquid medium, 37° C., read-out: Minimum inhibitory concentration against H37Rv
Experimental: The tested strain H37Rv was transferred to liquid medium and cultured for 2 weeks at 37° C.; a small amount of the cultured bacterial solution was pipetted and placed in 4 mL of liquid medium; 10-20 sterile glass beads with a diameter of 2-3 mm were added; the mixture was shaken for 20-30 s and left to sediment for 10-20 min; the supernatant of the bacterial suspension was pipetted and adjusted to a turbidity of 1 MCF (equivalent to 1×10^7 CFU/mL) with the liquid medium for use. Each drug was dissolved to 1 mg/mL with an appropriate amount of DMSO and filtered with a 0.22 μm filter. Then, the solution was diluted to a desired experimental concentration with the liquid medium. The final concentrations of the tested drugs were set as follows: 0.001 μg/mL, 0.002 μg/mL, 0.0039 μg/mL, 0.0078 μg/mL, […], 0.03125 μg/mL, 0.0625 μg/mL, 0.125 μg/mL, 0.25 μg/mL, 0.5 μg/mL and 1 μg/mL, a total of 11 concentration gradients. 100 μL of each of the above-mentioned drug solutions was added to a 96-well microwell plate, then 100 μL bacterial solution with a concentration of 1 mg/mL was added to allow the drug concentration to reach the final set concentration, and cultured at 37° C. Three groups in parallel were set for each drug dilution with inoculation amounts of 100%, 10% and 1%, respectively, while no drug was added to the control group.

[2] = Drug metabolism test (pharmacokinetics, oral, mice); format: in vivo, ICR mice; details: 10 mg/kg; for AUC(0-inf) / AUC(0-t) / Cmax / MRT / Tmax / half-life: male, ICR, mouse, po, orally (intragastric), plasma; for pharmacokinetic properties (in words): orally, judgement on Table 6
Experimental: 18 healthy male ICR mice with a body weight of 18-22 g were administered drugs by intragastric administration, with an administration dose of 10 mg/kg and an administration volume of 10 mL/kg, respectively. These mice were fasted for 12 h before the test and had free access to drinking water. These mice were fed 2 h after administration uniformly. 0.3 mL of blood was taken from the postocular venous plexus of a mouse at the set time points, placed in a heparinized test tube and centrifuged for 10 min at 3000 rpm; and plasma was separated and frozen in a refrigerator at −20° C. When measured, the sample was treated through the method for treating the plasma sample, and the drug concentration in plasma was determined by LC-MS/MS and the pharmacokinetic parameters of the drug were calculated.

physchem = format: physicochemical; details: for solubility at 3 days: pH 1.2, simulated gastric fluid, thermodynamic from solid
Experimental: 3-5 mg of compound to be tested was added to 0.5 mL of aqueous HCl solution (pH=1.2) and the mixture was shaken for three days on a shaker; the sample was centrifuged for 5 min at 10,000 rpm in a centrifuge; a volumetric flask (50 mL) was loaded with 2 mL of supernatant and water was added to a volume at the graduation mark to prepare a sample solution; and 2.6 mg of sample was precisely weighed into a volumetric flask (50 mL), an appropriate amount of methanol was added to dissolve the sample, and water was added to a volume at the graduation mark and shaken well to give a control sample solution. 20 μL of sample solution and control sample solution were each injected, and tested by liquid chromatography. The solubility was calculated as follows:
Solubility (mg/mL)=C (control)*25*A (sample)/A (control)
C (control): concentration of the control sample
A (sample): peak area of the liquid chromatogram of the sample solution
A (control): peak area of the liquid chromatogram of the control sample solution

Row | SMILES | anti Mycobacterium tuberculosis activity (MIC against H37Rv), times of that of PA-824 [1] [times] | anti Mycobacterium tuberculosis activity (MIC against H37Rv), times of that of ethambutol [1] [times] | MIC [1] [µg/mL] | also measured
1 | O=[N+]([O-])c1cn2c(n1)OC[C@@H](NCc1ccc(N3CCC(Oc4ccc(OC(F)(F)F)cc4)CC3)nc1)C2 [Compound 1, (S)-2-nitro-N-((6-(4-(4-(trifluoromethoxy)phenoxy)piperidin-1-yl)pyrid-3-yl)methyl)-6,7-dihydro-5H-imidazo[2,1-b][1,3]oxazin-6-amine] | 8 | 64 | 0.0078 (≈ 0.0146 µM) | AUC(0-inf) [2]: 32300 ng·h/mL; AUC(0-t) [2]: 31300 ng·h/mL; Cmax [2]: 2670 ng/mL; MRT [2]: 6.64 h; Tmax [2]: 2.33 h; half-life [2]: 4.76 h; pharmacokinetic properties (in words) [2]: excellent; solubility at 3 days (physchem): 784 µg/mL (≈ 1470 µM)
2 | O=[N+]([O-])c1cn2c(n1)OC[C@@H](NCc1ccc(N3CCC(Oc4ccc(OC(F)(F)F)cc4)C(F)C3)nc1)C2 (stereo partly drawn) [Compound 3, (6S)—N-((6-(3-fluoro-4-(4-(trifluoromethoxy)phenoxy)piperidin-1-yl)pyrid-3-yl)methyl)-2-nitro-6,7-dihydro-5H-imidazo[2,1-b][1,3]oxazin-6-amine] | – | – | 0.0156 (≈ 0.0282 µM) | –
3 | O=[N+]([O-])c1cn2c(n1)OC[C@@H](NCc1ccc(N3CCN(c4ccc(OC(F)(F)F)cc4)CC3)nc1)C2 [Compound 4, (S)-2-nitro-N-((6-(4-(4-(trifluoromethoxy)phenyl)piperazin-1-yl)pyrid-3-yl)methyl)-6,7-dihydro-5H-imidazo[2,1-b][1,3]oxazin-6-amine] | 32 | 256 | 0.00195 (≈ 0.00375 µM) | AUC(0-inf) [2]: 17300 ng·h/mL; AUC(0-t) [2]: 17200 ng·h/mL; Cmax [2]: 1780 ng/mL; MRT [2]: 5.56 h; Tmax [2]: 2 h; half-life [2]: 3.38 h; Solubility (physchem; 3 days, pH 1.2): 1257.2 µg/mL (≈ 2420 µM); solubility at 3 days (physchem): > 1000 µg/mL
4 | CC1CN(c2ccc(CN[C@@H]3COc4nc([N+](=O)[O-])cn4C3)cn2)CCN1c1ccc(OC(F)(F)F)cc1 (stereo partly drawn) [Compound 5, (3S)—N-((6-(3-methyl-4-(4-(trifluoromethoxy)phenyl)piperazin-1-yl)pyrid-3-yl)methyl)-7-nitro-3,4-dihydro-2H-imidazo[2,1-b][1,3]oxazin-3-amine] | 16 | 128 | 0.0039 (≈ 0.00731 µM) | –
5 | CC1CN(c2ccc(OC(F)(F)F)cc2)CCN1c1ccc(CN[C@@H]2COc3nc([N+](=O)[O-])cn3C2)cn1 (stereo partly drawn) [Compound 6, (3S)—N-((6-(2-methyl-4-(4-(trifluoromethoxy)phenyl)piperazin-1-yl)pyrid-3-yl)methyl)-7-nitro-3,4-dihydro-2H-imidazo[2,1-b][1,3]oxazin-3-amine] | 32 | 256 | 0.00195 (≈ 0.00366 µM) | –
6 | N#CC1(c2ccc(OC(F)(F)F)cc2)CCN(c2ccc(CN[C@@H]3COc4nc([N+](=O)[O-])cn4C3)cn2)CC1 [Compound 10, (S)-1-(5-(((7-nitro-3,4-dihydro-2H-imidazo[2,1-b][1,3]oxazin-3-yl)amino)methyl)pyridin-2-yl)-4-(4-(trifluoromethoxy)phenyl)piperidine-4-carbonitrile] | 32 | 256 | 0.00195 (≈ 0.00359 µM) | AUC(0-inf) [2]: 28800 ng·h/mL; AUC(0-t) [2]: 28800 ng·h/mL; Cmax [2]: 2030 ng/mL; MRT [2]: 4.68 h; Tmax [2]: 2.18 h; half-life [2]: 3.35 h; pharmacokinetic properties (in words) [2]: excellent; solubility at 3 days (physchem): 522 µg/mL (≈ 960 µM)
7 | O=[N+]([O-])c1cn2c(n1)OC[C@@H](NCc1ccc(N3CC4CN(c5ccc(OC(F)(F)F)cc5)CC4C3)nc1)C2 (stereo partly drawn) [Compound 11, (6S)-2-nitro-N-((6-(5-(4-(trifluoromethoxy)phenyl)hexahydropyrrolo[3,4-c]pyrrol-2(1H)-yl)pyrid-3-yl)methyl)-6,7-dihydro-5H-imidazo[2,1-b][1,3]oxazin-6-amine] | – | – | 0.0312 (≈ 0.0573 µM) | –
8 | O=[N+]([O-])c1cn2c(n1)OC[C@@H](NCc1ccc(N3CCC4(CC3)CN(c3ccc(OC(F)(F)F)cc3)C4)nc1)C2 [Compound 13, (S)-2-nitro-N-((6-(2-(4-(trifluoromethoxy)phenyl)-2,7-diazaspiro[3.5]nonan-7-yl)pyrid-3-yl)methyl)-6,7-dihydro-5H-imidazo[2,1-b][1,3]oxazin-6-amine] | – | – | 0.0156 (≈ 0.0279 µM) | –
9 | O=[N+]([O-])c1cn2c(n1)OC[C@@H](NCc1ccc(N3C4CCC3CC(Oc3ccc(OC(F)(F)F)cc3)C4)nc1)C2 (stereo partly drawn) [Compound 14, (6S)-2-nitro-N-((6-(3-(4-(trifluoromethoxy)phenoxy)-8-azabicyclo[3.2.1]octan-8-yl)pyrid-3-yl)methyl)-6,7-dihydro-5H-imidazo[2,1-b][1,3]oxazin-6-amine] | 8 | 64 | 0.0078 (≈ 0.0139 µM) | –
10 | O=[N+]([O-])c1cn2c(n1)OC[C@@H](NCc1cnc(N3CCC(Oc4ccc(OC(F)(F)F)cc4)CC3)nc1)C2 [Compound 15] | – | – | 0.0312 (≈ 0.0584 µM) | –
11 | O=[N+]([O-])c1cn2c(n1)OC[C@@H](NCc1cnc(N3CC4CN(c5ccc(OC(F)(F)F)cc5)CC4C3)nc1)C2 (stereo partly drawn) [Compound 25] | – | – | 0.0156 (≈ 0.0285 µM) | –
12 | O=[N+]([O-])c1cn2c(n1)OC[C@@H](NCc1cnc(N3C4CCC3CC(Oc3ccc(OC(F)(F)F)cc3)C4)nc1)C2 (stereo partly drawn) [Compound 28] | – | – | 0.0156 (≈ 0.0278 µM) | –
13 | COc1nc(N2CCN(c3ccc(OC(F)(F)F)cc3)CC2)ncc1CN[C@@H]1COc2nc([N+](=O)[O-])cn2C1 [Compound 38, (S)—N-((4-methoxy-2-(4-(4-(trifluoromethoxy)phenyl)piperazin-1-yl)pyrimidin-5-yl)methyl)-2-nitro-6,7-dihydro-5H-imidazo[2,1-b][1,3]oxazin-6-amine] | – | – | 0.0156 (≈ 0.0283 µM) | –
14 | N#Cc1nc(N2CCN(c3ccc(OC(F)(F)F)cc3)CC2)ncc1CN[C@@H]1COc2nc([N+](=O)[O-])cn2C1 [Compound 40, (S)-5-(((2-nitro-6,7-dihydro-5H-imidazo[2,1-b][1,3]oxazin-6-yl)amino)methyl)-2-(4-(4-(trifluoromethoxy)phenyl)piperazin-1-yl)pyrimidine-4-carbonitrile] | 8 | 64 | 0.0078 (≈ 0.0143 µM) | –
15 | O=[N+]([O-])c1cn2c(n1)OC[C@@H](NCc1cnc(N3CCN(c4ccc(OC(F)(F)F)cc4)CC3)nc1C(F)(F)F)C2 [Compound 41, (S)-2-nitro-N-((2-(4-(4-(trifluoromethoxy)phenyl)piperazin-1-yl)-4-(trifluoromethyl)pyrimidin-5-yl)methyl)-6,7-dihydro-5H-imidazo[2,1-b][1,3]oxazin-6-amine] | – | – | 0.0312 (≈ 0.0531 µM) | –
16 | CN(Cc1cnc(N2CCN(c3ccc(OC(F)(F)F)cc3)CC2)nc1)[C@@H]1COc2nc([N+](=O)[O-])cn2C1 [Compound 44, (S)—N-methyl-2-nitro-N-((2-(4-(4-(trifluoromethoxy)phenyl)piperazin-1-yl)pyrimidin-5-yl)methyl)-6,7-dihydro-5H-imidazo[2,1-b][1,3]oxazin-6-amine] | 32 | 256 | 0.00195 (≈ 0.00365 µM) | –
17 | CC[C@@H](CO)NCCN[C@@H](CC)CO [Ethambutol, reference compound] | – | – | 0.5 (≈ 2.45 µM) | –
